Measured values as given in patent publication US12042501B2, “Metal protoporphyrin for treatment of BK virus” (Renibus Therapeutics, Inc., priority 2021, dated 2024).
Entries after “also recorded” stand apart in the source; their conditions may differ. Like-named read-outs stand apart in the source and are kept apart here.

Assays:
BK Virus [1] = experiment: BK virus standard qPCR-based antiviral assay (treatment with SnPP at the time of infection; primary and secondary); format: cell-based, strain Gardner; conditions: for SI50: CC50/EC50; for SI90: CC50/EC90; for Activity: BK
BK Virus [2] = experiment: BK virus viral neutralization assay (pre-incubation of SnPP with BK virus for 1 hour prior to infection), qPCR; format: cell-based, strain Gardner; conditions: for EC50 / EC90 / SI50 / SI90: experiment 21-bk2-004; for EC50 / EC90: Secondary (Neutralization, pre-incubation of virus), BK Virus Gardner in HFF, qPCR (DNA); for SI50 / SI90: Secondary (Neutralization); for SI50: CC50/EC50; for SI90: CC50/EC90
[3] = Cellular viability by CellTiter-Glo in the BK virus assays; conditions: human
HFF cells = experiment: as above
[4] = system: non-enveloped polio virus; conditions: in vitro; Neris et al. 2018; cited from earlier work
enveloped viruses = conditions: in vitro; Neris et al. 2018; cited from earlier work
JC virus [5] = experiment: JC virus qPCR antiviral assay in COS7 cells (primary/standard); format: cell-based, 1-4 strain; conditions: for Activity / EC50 / EC90 / SI50: JC; for Activity: Non-enveloped; for SI50: CC50/EC50
Method: (§1) Primary evaluation of compounds against JC virus were also performed by methods similar to those for BK virus primary assays but were done in COS7 cells and utilized the 1-4 strain of JCV in COS7 cells. Viral DNA was quantified using primers 5′-[…]-3′ and 5′-[…]-3′ and probe 5′-6-FAM-[…]-TAMRA-3 together with the plasmid pMP508 to provide a standard curve for absolute quantification. Secondary assays against JCV were also performed in COS7 cells by methods similar to those for BK virus to identify compounds that inhibited adsorption or penetration of the virus. • EC50—compound concentration that reduces viral replication by 50% • EC90—compound concentration that reduces viral replication by 90% • CC50—compound concentration that reduces cell viability by 50% • SI50—CC50/EC50 • SI90—CC50/EC90

JC virus [6] = experiment: JC virus neutralization assay (pre-incubation of virus with RBT-9) in COS7 cells; format: cell-based, 1-4 strain
Method: The present inventors used assays to determine the antiviral activity against various pathogens, including particularly the BK virus. Two conditions were investigated: 1) standard qPCR-based antiviral assay—treatment with SnPP at the time of infection and 2) viral neutralization—pre-incubation of SnPP with BK virus for 1 hour prior to infection. SnPP was tested at concentrations up to 100 μM. Human foreskin fibroblast (HFF) cells were used as the host cell. Viral activity was assessed by real time qPCR and cellular viability was determined by CellTiter-Glo.
as §1

Adenovirus (Adv) = experiment: AdV primary antiviral assay; format: cell-based
HPV (HPV11) = experiment: HPV primary antiviral assay; format: cell-based, Human Papilloma Virus
CMV = CMV primary antiviral assay; format: cell-based
[7] = in vivo
[8] = system: acute kidney injury (AKI); conditions: animals; given prior to insult; cited from earlier work
[9] = experiment 21-bk2-001, Secondary
[10] = experiment 21-bk2-003, Primary (Standard)
[11] = experiment 21-bk2-003, Primary (Standard), HFF, CellTiter-Glo
[12] = experiment 21-bk2-004, Secondary (Neutralization), HFF, CellTiter-Glo

Question: What does the source list for `Nc1ccn(C[C@@H](CO)OCP(=O)(O)O)c(=O)n1` [Cidofovir, reference compound]?
Answer: EC90 (BK Virus [1]; Betapolyomavirus hominis, experiment 20-bk-007, Primary, BK Virus Gardner in HFF, qPCR (DNA)): 117 µM; EC50 (BK Virus [1]; Betapolyomavirus hominis, experiment 20-bk-007, Primary, BK Virus Gardner in HFF, qPCR (DNA), read-out: EC50): 6.28 µM; EC90 (BK Virus [1]; Betapolyomavirus hominis, experiment 21-bk2-001, Secondary, BK Virus Gardner in HFF, qPCR (DNA)): 10.7 µM; EC50 (BK Virus [1]; Betapolyomavirus hominis, experiment 21-bk2-001, Secondary, BK Virus Gardner in HFF, qPCR (DNA), read-out: EC50): 0.72 µM; EC90 (BK Virus [1]; Betapolyomavirus hominis, experiment 21-bk2-003, Primary (Standard), BK Virus Gardner in HFF, qPCR (DNA)): 17.9 µM; EC50 (BK Virus [1]; Betapolyomavirus hominis, experiment 21-bk2-003, Primary (Standard), BK Virus Gardner in HFF, qPCR (DNA), read-out: EC50): 0.13 µM; SI50 (BK Virus [1]; experiment 20-bk-007, Primary): >24; SI90 (BK Virus [1]; experiment 20-bk-007, Primary): >1; SI50 (BK Virus [1]; [9]): >139; SI90 (BK Virus [1]; [9]): >9; SI50 (BK Virus [1]; [10]): >769; SI90 (BK Virus [1]; [10]): >6; EC50 (BK Virus [2]; Betapolyomavirus hominis): > 100 µM; EC90 (BK Virus [2]; Betapolyomavirus hominis): > 100 µM; SI50 (BK Virus [2]): 1; SI90 (BK Virus [2]): 1; CC50 [3]: > 100 µM; CC50 ([3]; CC50, experiment 20-bk-007, Primary, HFF, CellTiter-Glo): > 150 µM; CC50 (HFF cells; [11]): > 100 µM; CC50 (HFF cells; [12]): > 100 µM

Question: What does the source list for `C=Cc1c(C)c2cc3[nH]c(cc4nc(cc5nc(cc1[nH]2)C(C)=C5CCC(=O)[O-])C(CCC(=O)[O-])=C4C)c(C)c3C=C.[Co+2]` [Cobalt protoporphyrin, Co-protoporphyrin IX, reference compound]?
Answer: activity against polio virus [4]: no activity; antiviral activity against enveloped viruses (enveloped viruses): broad antiviral activity

Question: With `C=CC1=C(C)c2cc3[n-]c(cc4[n-]c(cc5nc(cc1n2)C(C)=C5C=C)c(C)c4CCC(=O)O)c(CCC(=O)O)c3C.[Sn+2]` [SnPP, Stannous protoporphyrin] as the compound, how does the Activity (BK Virus [1]; Primary (20-bk-007)) read?
Answer: MODERATE

Question: And the Activity (BK Virus [1]; Primary (Standard) (21-bk2-003))?
Answer: MODERATE

Question: And the Activity (BK Virus [1]; Secondary (21-bk2-001))?
Answer: HIGH

Question: What about the EC50 (BK Virus [1]; averaged in 2 independently run standard qPCR assays, BK virus, read-out: 50% effective concentration (EC50), average) of the same compound?
Answer: 5.5 µM

Question: What about the “antiviral / inactivating activity against BK virus (in words)” value (BK Virus [1]; both treatment conditions) of the same compound?
Answer: broad inactivating activity; also recorded: moderate antiviral activity; also recorded: most significant activity

Question: What about the EC90 (BK Virus [1]; experiment 20-bk-007, Primary, BK Virus Gardner in HFF, qPCR (DNA)) of the same compound?
Answer: 26.6 µM

Question: What about the EC50 (BK Virus [1]; experiment 20-bk-007, Primary, BK Virus Gardner in HFF, qPCR (DNA), read-out: EC50) of the same compound?
Answer: 8.08 µM

Question: What about the SI50 (BK Virus [1]; experiment 20-bk-007, Primary) of the same compound?
Answer: 8

Question: What about the SI90 (BK Virus [1]; experiment 20-bk-007, Primary) of the same compound?
Answer: 2

Question: What about the EC90 (BK Virus [1]; experiment 21-bk2-001, Secondary, BK Virus Gardner in HFF, qPCR (DNA)) of the same compound?
Answer: 30.1 µM

Question: What about the EC50 (BK Virus [1]; experiment 21-bk2-001, Secondary, BK Virus Gardner in HFF, qPCR (DNA), read-out: EC50) of the same compound?
Answer: 2.4 µM

Question: And the SI50 (BK Virus [1]; [9])?
Answer: 40

Question: What about the SI90 (BK Virus [1]; [9]) of the same compound?
Answer: 3

Question: And the EC90 (BK Virus [1]; experiment 21-bk2-003, Primary (Standard), BK Virus Gardner in HFF, qPCR (DNA))?
Answer: 81.8 µM

Question: And the EC50 (BK Virus [1]; experiment 21-bk2-003, Primary (Standard), BK Virus Gardner in HFF, qPCR (DNA), read-out: EC50)?
Answer: 8.6 µM

Question: What about the SI50 (BK Virus [1]; [10]) of the same compound?
Answer: 10

Question: And the SI90 (BK Virus [1]; [10])?
Answer: 1

Question: And the Activity (BK Virus [2]; BK, Secondary (Neutralization) (21-bk2-004))?
Answer: MODERATE

Question: And the SI50 (BK Virus [2])?
Answer: 15

Question: And the SI90 (BK Virus [2])?
Answer: 3

Question: And the EC50 (BK Virus [2])?
Answer: 5.4 µM

Question: And the EC90 (BK Virus [2])?
Answer: 32.9 µM

Question: And the “inactivating activity against JC virus (in words)” value (JC virus [5])?
Answer: moderate inactivating activity

Question: What about the Activity (JC virus [5]; Primary) of the same compound?
Answer: MODERATE

Question: And the Activity (JC virus [5]; Primary (Standard))?
Answer: MODERATE

Question: And the EC50 (JC virus [5]; Primary)?
Answer: 5.38 µM

Question: What about the EC90 (JC virus [5]; Primary) of the same compound?
Answer: > 30 µM

Question: What about the EC50 (JC virus [5]; Primary (Standard)) of the same compound?
Answer: 9.93 µM

Question: And the EC90 (JC virus [5]; Primary (Standard))?
Answer: 63.1 µM

Question: What about the SI50 (JC virus [5]; Primary (Standard)) of the same compound?
Answer: 7

Question: And the SI50 (JC virus [5]; Primary)?
Answer: 19

Question: And the Activity (JC virus [6]; Non-enveloped, Secondary (Neutralization, pre-incubation of virus with RBT-9))?
Answer: MINIMAL

Question: What about the EC50 (JC virus [6]; Secondary (Neutralization)) of the same compound?
Answer: 18.9 µM

Question: And the EC90 (JC virus [6]; Secondary (Neutralization))?
Answer: > 20 µM

Question: What about the SI50 (JC virus [6]; Secondary (Neutralization), CC50/EC50) of the same compound?
Answer: 4

Question: What about the “inactivating activity against Adenovirus (in words)” value (Adenovirus (Adv)) of the same compound?
Answer: not found; also recorded: Minimal to no activity

Question: What about the Activity (Adenovirus (Adv); AdV, Non-enveloped, Primary) of the same compound?
Answer: NONE

Question: What about the EC50 (Adenovirus (Adv); AdV, Primary) of the same compound?
Answer: > 30 µM

Question: What about the EC90 (Adenovirus (Adv); AdV, Primary) of the same compound?
Answer: > 30 µM

Question: What about the SI50 (Adenovirus (Adv); AdV, Primary, CC50/EC50) of the same compound?
Answer: <1

Question: What about the “inactivating activity against HPV (in words)” value (HPV (HPV11)) of the same compound?
Answer: not found; also recorded: Minimal to no activity

Question: What about the Activity (HPV (HPV11); HPV (HPV11), Non-enveloped, Primary) of the same compound?
Answer: MINIMAL

Question: What about the EC50 (HPV (HPV11); HPV (HPV11), Primary) of the same compound?
Answer: 23.4 µM

Question: What about the EC90 (HPV (HPV11); HPV (HPV11), Primary) of the same compound?
Answer: > 30 µM

Question: And the SI50 (HPV (HPV11); HPV (HPV11), Primary, CC50/EC50)?
Answer: 5

Question: What about the EC50 (CMV) of the same compound?
Answer: > 6 µM

Question: What about the EC90 (CMV) of the same compound?
Answer: > 6 µM

Question: What about the SI50 (CMV; CC50/EC50) of the same compound?
Answer: <3

Question: And the Activity (CMV; Enveloped)?
Answer: NONE

Question: And the tolerability [7]?
Answer: well tolerated

Question: What about the “protection against acute kidney injury (AKI)” value [8] of the same compound?
Answer: protective

Question: And the “activity against polio virus” value [4]?
Answer: no activity

Question: And the “antiviral activity against enveloped viruses” value (enveloped viruses)?
Answer: broad antiviral activity

Question: What about the “concentration not adversely affecting host cell viability, times higher than effective concentration” value (HFF cells; CC50 average versus effective concentration, BK virus assays) of the same compound?
Answer: 16.5 times

Question: And the CC50 (HFF cells; experiment 20-bk-007, Primary, HFF, CellTiter-Glo)?
Answer: 62.3 µM

Question: And the CC50 (HFF cells; experiment 21-bk2-001, Secondary, HFF, CellTiter-Glo)?
Answer: 95.8 µM

Question: And the CC50 (HFF cells; [11])?
Answer: 82.7 µM

Question: What about the CC50 (HFF cells; [12]) of the same compound?
Answer: 82.7 µM

Question: And the CC50 (HFF cells; read-out: 50% cytotoxic concentration (CC50), average, averaged in the in vitro studies, host cell viability)?
Answer: 89.2 µM
